Experiments:
PC-3 cells = test: Apoptosis assay (annexin V-FITC/propidium iodide flow cytometry), serum-free; conditions: 10 mM, 2 h, PC-3
Experimental: (§1) FIGS. (7A1–7A3), (7B1–7B2), (7C1–7C3), (7D1–7D2), (7E1–7E3), (7F1–7F2). […] Cells were grown in serum-free medium overnight in T-25 flasks and treated with tempol (10 mM) or tempo (10 mM) for various times, trypsinized, and then resuspended in 200 ul 1× binding buffer as described in experimental procedures. The cell suspension was double-stained with annexin V-FITC and propidium iodide and analyzed by flow cytometry. Background signal was determined by comparison with double-stained, single-stained, or unstained control cells. (7A1–7A3), (7C1–7C3), and (7E1–7E3) are cytograms showing a relative distribution of viable (V), apoptotic (A), and necrotic (N) cells at 2 h following tempol or tempo treatment of MDA-MB 231 cells (A), PCI-04A cells (C), and PC-3 cells (E). (7B1–7B3), (7D1–7D2), and (7F1–7F2) are time course analyses of MDA-MB 231 cells (B), PCT-04A cells (D), and PC-3 cells (F). 100,000 cells were analyzed at each time point in triplicate (B) or quadruplicate (D and F). Solid bars, 1% ethanol, striped bars, 10 mM tempol, empty bars, 10 mM tempo. […] Data shown are representative from three to four independent experiments. (7B1–7B2), Time course analysis of MDA-MB 231 cells undergoing apoptosis (annexin V-FITC staining) (7B1), or necrosis (propidium iodide staining) (7B2). Values shown are mean±s.d. of triplicate determinations per time point in each treatment category, and representative of three to four independent experiments. […] (7D1–7D2), Time course analysis of PCI-04A cells undergoing apoptosis (annexin V-FITC staining) (7D1), or necrosis (propidium iodide staining) (7D2). Values shown are mean±s.d. of quadruplicate determinations per time point in each treatment category. […] (7F1–7F2), Time course analysis of PC-3 cells undergoing apoptosis (annexin V-FITC staining) (7F1), or necrosis (propidium iodide staining) (7F2). Values shown are mean±s.d. of quadruplicate determinations per time point in each treatment category. Control/C, cells treated with 1% ethanol for 2 h.
Apoptosis Assay—ApoAlert Annexin V apoptosis detection system (Clontech Lab Inc., Palo Alto, Calif.) was used to measure the relative distribution of apoptotic and necrotic cells. Briefly, cells were seeded at a density of 1×10^6 cells per 25 cm^2 tissue culture flask in medium containing 10% FBS overnight, followed by washing twice in serum-free medium. Cells were maintained overnight in serum-free medium and exposed to tempol (10 mM) or tempo (10 mM) for various times. […] The intensity of the dye uptake by cells was detected using FACStar plus Flow Cytometer (Becton Dickerson, Lincoln Park, N.J.), and data were analyzed using Reproman True Facts software (Seattle, Wash.). […]

PCI-04A cells = test: Apoptosis assay (annexin V-FITC/propidium iodide flow cytometry); conditions: 10 mM, PCI-04A
Experimental: as §1
Apoptosis Assay—ApoAlert Annexin V apoptosis detection system (Clontech Lab Inc., Palo Alto, Calif.) was used to measure the relative distribution of apoptotic and necrotic cells. Briefly, cells were seeded at a density of 1×10^6 cells per 25 cm^2 tissue culture flask in medium containing 10% FBS overnight, followed by washing twice in serum-free medium. Cells were maintained overnight in serum-free medium and exposed to tempol (10 mM) or tempo (10 mM) for various times. This was followed by rinsing twice with serum-free medium prior to trypsinization, dilution in two volumes of serum-free medium, and centrifugation at 10,000× g. The cell pellet was washed once with PBS and resuspended in 200 ul of 1× binding buffer. The cell suspension was double-labeled with fluorescein isothiocyanate (FITC)-labeled annexin V (10 ul) and propidium iodide (PI) (10 ul) according to the manufacturer's instructions. Unlabeled cells or untreated cells labeled with either FITC-annexin V or PI, or double-labeled served as internal controls for the background signal. The intensity of the dye uptake by cells was detected using FACStar plus Flow Cytometer (Becton Dickerson, Lincoln Park, N.J.), and data were analyzed using Reproman True Facts software (Seattle, Wash.). Viable cells were FITC−/PI−, apoptotic cells were FITC+/PI−, and necrotic cells were FITC+/PI+.

MDA-MB 231 cells = test: Cell viability assay (WST-1); format: cell-based, human; conditions: 10 mM, within 2 h
Experimental: FIG. 6. Effects of tempol and tempo on cell viability. […] Control cells were grown overnight in serum-free medium, followed by treatment with 1% ethanol for various times. Fresh serum-free medium (100 ul) was added to each well in all plates, including controls followed by the addition of WST-1 (10 ul). Plates were incubated for 2 h at 37° C. and the color solution developed by WST-1 was quantified using a MR 700 microplate reader at OD=450/600. Values shown are mean±s.d. of 6 determinations per treatment condition in a representative experiment, and the experiment was repeated three times.
Cell Viability Assay—Effects of nitroxide compounds on cell viability and proliferation were determined using a cell viability detection kit (4-[3-(4-Iodophenyl)-2-(4-nitrophenyl)-2H-5-tetrazolio]-1,3-benzene disulfonate, WST-1) according to the manufacturer's instructions (Boehringer Mannheim, Indianapolis, Ind.). Briefly, MDA-MB 231 cells were seeded onto 96 well plates at density of 10,000 cells per well and maintained overnight in 10% FBS containing medium. The cells were then washed twice with phosphate buffered saline and re-fed in serum-free medium. The following day, cells were treated for various times with tempol (10 mM) or tempo (10 mM), using six wells per treatment condition. […] Plates were incubated for 2 h at 37° C. and analyzed at OD=450/600 using a MR 700 microplate reader.

SMILES | apoptotic cells (A) (PC-3 cells) | viable cells (V) (PC-3 cells) | apoptotic cells (A) (PCI-04A cells; 2 h) | viable cells (V) (PCI-04A cells; 2 h) | apoptosis and necrosis (PCI-04A cells; 2 h post-treatment) | decrease in the number of viable cells (MDA-MB 231 cells)
CC1(C)CCCC(C)(C)N1[O] [tempo, 2,2,6,6-tetramethylpiperidine-N-oxyl] | 2.57% | 10.76% | 48.35% | 18.61% | significant level of apoptosis and necrosis | > 50%
CC1(C)CC(O)CC(C)(C)N1[O] [tempol, 4-hydroxy-tempo, reference compound] | 1.20% |  | 5.44% |  |  | comparable to control cells

Reference: patent US7074807B2, “Compositions and methods for inducing cell death” (Georgetown University, priority 1998, dated 2006)
